In patent US8940723B2, “Combination of a pyrroloquinoline compound and a beta-lactam antimicrobial agent, mupirocin or chlorhexidine” (Helperby Therapeutics Limited, priority 2010, dated 2015):
≈ marks a conversion by molar mass, not a printed value. Entries after “also recorded” stand apart in the source; their conditions may differ. Where two headings read alike, the source gives them in different places.

Columns and labels:
[1] = test system: log phase S. aureus (Oxford strain); test: Time-kill curve suspension assay, CFU counts, log phase; type: cell-based, Staphylococcus aureus
Procedure: For CFU counting, the bacterial suspensions were diluted using sterile deionized water or phosphate-buffered saline (PBS, Sigma Aldrich Ltd, Poole, Dorset, UK). 100 μl of 10-fold serial dilutions of bacteria culture were plated on one third of TSA plates in triplicate and incubated 24 to 48 hours at 37° C. The number of cells presented on the plates was counted using an AcoLyte colony counter (Synbiosis) and results were expressed as Colony Forming Units/ml (CFU/ml). […] (b) mupirocin; and (c) chlorhexidine gluconate against S. aureus, in a concentration range from below to above the MIC, was assessed in a suspension assay by the time-kill curve method. […] The wells were then inoculated with 280 μl of S. aureus (Oxford strain) suspension containing 10^7 CFU/ml of inocula. Drug free controls were also included. The microtitre plates were incubated at 37° C. for 16 to 24 hours, read in a 96-well plate reader, then samples were diluted and 100 μl of each dilution was plated out on TSA plates. After 24 to 48 hours incubation CFU was counted. Each test was performed in triplicate and repeated twice. […] The wells were then inoculated with 280 μl of S. aureus (Oxford strain) suspension containing 10^7 CFU/ml of inocula. Drug free controls were also included. The microtitre plates were incubated at 37° C. for 16 to 24 hours, read in a 96-well plate reader, then samples were diluted and 100 μl of each dilution was plated out on TSA plates. After 24 to 48 hours incubation CFU was counted. […] Each test was performed in triplicate and repeated twice. […] The wells were then inoculated with 280 μl of S. aureus (Oxford strain) suspensions containing 10^7 or 10^8 and CFU/ml of inocula. Drug free controls were also included. The microtitre plates were incubated at 37° C. for 16 to 24 hours, read in a 96-well plate reader, then samples were diluted and 100 μl of each dilution was plated out on TSA plates. After 24 to 48 hours incubation CFU was counted. Each test was performed in triplicate and repeated twice. […] The mean bacterial colony count at varying time points was compared by the two-tailed t-test with unequal variance. P values of ≦0.05 indicated significant difference.

[2] = test system: Staphylococcus aureus (Oxford); test: Minimum inhibitory concentration (MIC), broth dilution method; type: cell-based; details: S. aureus (Oxford), Iso-Sensitest broth, overnight incubation at 37° C.
Procedure: Staphylococcus aureus (Oxford); Gram positive; Reference strain.
Iso-Sensitest Broth (Oxoid) was used for evaluation of Minimum inhibitory concentrations (MICs), susceptibility tests for antimicrobials, and efficacy of antimicrobial combinations.
The stock solution of each drug was diluted to required concentrations. 10 μl of drug from each dilution was taken and mixed with 290 μl of culture with 10^6 of bacterial cells on a 96-well plate to make the final required concentrations (μg/ml).
The plates were read at 405 nm using a 96-well plate reader Elx 800 equipped with a 405-nm filter (Bio-Tek) before and after incubation. The MIC values of the drugs were determined by comparison of the optical density reading between prior and post drug treatment.

[3] = test system: Staphylococcus aureus (Oxford); test: Minimum bactericidal concentration (MBC), subculture on drug-free TSA plates; type: cell-based; details: S. aureus (Oxford), subculture on TSA 24 to 48 hours at 37° C.
Procedure: Minimum bactericidal concentration (MBC) was determined by subculturing 100 μl of dilutions from the 96-well plate on fresh drug-free TSA agar plates and incubating further for 24 to 48 hours at 37° C.

[4] = test system: clinically latent microorganisms; test: Screening for ability to kill clinically latent microorganisms (method of WO2000028074); type: cell-based
Source text: International Patent Application, Publication Number WO2000028074 describes a method of screening compounds to determine their ability to kill clinically latent microorganisms. […] This observation has necessitated the development of novel antimicrobials which may be used to kill clinically latent microorganisms.
By way of example, WO2000028074 describes a suitable method of screening compounds to determine their ability to kill clinically latent microorganisms. A typical method may include the following steps: • (1) growing a bacterial culture to stationary phase; • (2) treating the stationary phase culture with one or more antimicrobial agents at a concentration and or time sufficient to kill growing bacteria, thereby selecting a phenotypically resistant sub-population; • (3) incubating a sample of the phenotypically resistant subpopulation with one or more test compounds or agents; and • (4) assessing any antimicrobial effects against the phenotypically resistant subpopulation.
According to this method, the phenotypically resistant sub-population may be seen as representative of clinically latent bacteria which remain metabolically active in vivo and which can result in relapse or onset of disease.

[5] = Staphylococcus aureus, read-out: MIC
[6] = Staphylococcus aureus, read-out: MBC

SMILES	MIC [2, 5] [µg/mL]	MBC [3, 6] [µg/mL]	activity against clinically latent microorganisms [4]	further results
Cc1nc2ccc(Oc3ccccc3)cc2c2c1CCN2CCc1ccccc1 [4-methyl-8-phenoxy-1-(2-phenylethyl)-2,3-dihydro-1H-pyrrolo[3,2-c]quinoline]	8	16 (≈ 42.1 µM)		activity against log phase S. aureus ([1]; agent alone at 4 μg/ml): no activities; also recorded: no activity; kind of activity against log phase S. aureus ([1]; pyrroloquinoline alone at 10 and 8 μg/ml): bactericidal activity; CFU/ml reduced from 10^7 to ([1]; pyrroloquinoline alone at 10 and 8 μg/ml, at 72 hours): zero
N=C(NCCCCCCNC(=N)NC(=N)Nc1ccc(Cl)cc1)NC(=N)Nc1ccc(Cl)cc1.O=C(O)[C@H](O)[C@@H](O)[C@H](O)[C@H](O)CO.O=C(O)[C@H](O)[C@@H](O)[C@H](O)[C@H](O)CO [Chlorhexidine gluconate]				MIC [2]: 0.5 µg/mL; MBC [3]: 2 µg/mL
C/C(=C\C(=O)OCCCCCCCCC(=O)O)C[C@@H]1OC[C@H](C[C@@H]2O[C@H]2[C@@H](C)[C@H](C)O)[C@@H](O)[C@H]1O [Mupirocin]	0.125	256 (≈ 511 µM)	little or no activity	kind of activity against log phase S. aureus ([1]; mupirocin alone at 40, 20 and 10 μg/ml): bacteriostatic
CC[C@H]1OC(=O)[C@H](C)[C@@H](O[C@H]2C[C@@](C)(OC)[C@@H](O)[C@H](C)O2)[C@H](C)[C@@H](O[C@@H]2O[C@H](C)C[C@H](N(C)C)[C@H]2O)[C@](C)(O)C[C@@H](C)CN(C)[C@H](C)[C@@H](O)[C@]1(C)O [azithromycin]			little or no activity	
CC(=O)NC[C@H]1CN(c2ccc(N3CCOCC3)c(F)c2)C(=O)O1 [linezolid]			little or no activity	
